Consider six molecules from publication doi:10.1101/692707v2 (biorxiv, 2020).

Holding throughout (format): binding
The target in assay [1] is T1, YdiU^475 (Escherichia coli, UniProt P77649).
T1 sequence (P77649 1-475): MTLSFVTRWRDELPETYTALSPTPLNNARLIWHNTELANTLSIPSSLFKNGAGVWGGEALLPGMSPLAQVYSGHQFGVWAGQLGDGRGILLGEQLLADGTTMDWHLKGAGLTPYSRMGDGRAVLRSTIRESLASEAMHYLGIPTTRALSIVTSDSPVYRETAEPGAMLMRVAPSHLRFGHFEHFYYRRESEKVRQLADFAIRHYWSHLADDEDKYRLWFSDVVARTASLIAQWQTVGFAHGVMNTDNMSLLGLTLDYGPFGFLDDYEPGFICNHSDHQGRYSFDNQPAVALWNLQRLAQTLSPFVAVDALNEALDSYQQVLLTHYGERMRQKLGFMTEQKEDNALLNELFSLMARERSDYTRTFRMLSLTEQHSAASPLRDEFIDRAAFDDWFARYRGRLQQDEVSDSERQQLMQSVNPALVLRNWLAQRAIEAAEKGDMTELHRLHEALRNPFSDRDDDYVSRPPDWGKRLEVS
As to the kind of experiment: SPR. (In general: In SPR one partner is held on a chip, and binding of the other changes the refractive index at the surface.)

Assay [2] addresses T1, YdiU^475. The assay can be described thus: X-ray crystal structure. As to conditions: Mg2+, active site.
Assay [3] concerns the target T1, YdiU^475. The assay can be described thus: DSF on Uncle platform. As to conditions: 2 mM Mn2+, Tm of complex, not a shift, apo 38.3 °C (with 5 mM EDTA).

As usually defined, the Kd is a measure of binding affinity in units of concentration. Low values mean a tighter complex, high ones a looser complex. At YdiU^475 [1], `Nc1ncnc2c1ncn2[C@@H]1O[C@H](COP(=O)(O)OP(=O)(O)NP(=O)(O)O)[C@@H](O)[C@H]1O` [AMPNPP] had a Kd of roughly 18 µM.

On to `Nc1ncnc2c1ncn2[C@@H]1O[C@H](COP(=O)(O)O)[C@@H](O)[C@H]1O` [AMP], for which the X-ray crystal structure at YdiU^475 [2] (together with imidodiphosphate) is reported as 6III (YdiU-AMP-imidodiphosphonic acid).

Take `Nc1ncnc2c1ncn2[C@@H]1O[C@H](COP(=O)(O)OP(=O)(O)OP(=O)(O)O)[C@@H](O)[C@H]1O` [ATP]: at YdiU^475 [3] (1 mM ATP), the Tm1 is 50.3 °C.

Molecule `O=c1ccn([C@@H]2O[C@H](COP(=O)(O)NP(=O)(O)OP(=O)(O)O)[C@@H](O)[C@H]2O)c(=O)[nH]1` [UMPNPP] had a Kd at YdiU^475 [1] of roughly 0.14 µM.

For `O=c1ccn([C@@H]2O[C@H](COP(=O)(O)OP(=O)(O)OP(=O)(O)O)[C@@H](O)[C@H]2O)c(=O)[nH]1` [UTP], the Tm1 on YdiU^475 [3] (1 mM UTP) came to 40.6 °C.

Take `O=P(O)(O)NP(=O)(O)O` [imidodiphosphonic acid]: at YdiU^475 [2] (together with AMP), the X-ray crystal structure is given as 6III (YdiU-AMP-imidodiphosphonic acid).
